# Assay results published in US4073892A, “N^2 -alkoxynaphthylsulfonyl-L-argininamides and the pharmaceutically acceptable salts thereof” (Mitsubishi Chemical Industries Limited, priority 1974, dated 1978).
# Biological target: T1, thrombin (Bos taurus, UniProt P00735)
# T1 construct: purchased Mochida Pharmaceutical Co., Ltd
# Test: fibrinogen coagulation time (antithrombotic activity)
# Type: biochemical
# Conditions: bovine fibrinogen, thrombin solution 5 units/ml, borate saline buffer pH 7.4, 25° C; normal coagulation time 50-55 seconds
# Method: Immediately after mixing, the reaction mixture was transferred from the ice bath to a bath maintained at 25° C. Coagulation times were taken as the period between the time of transference to the 25° C bath and the time of the first appearance of fibrin threads.
# The term "concentration required to prolong the coagulation time by a factor of two" is the concentration of an active ingredient required to prolong the normal coagulation time 50-55 seconds to 100-110 seconds.
row,SMILES,Concentration Required to Prolong The Coagulation Time By A Factor of Two
1,"COCCN(CCC(=O)O)C(=O)[C@H](CCCNC(=N)N)NS(=O)(=O)c1ccc2cc(OC)c(OC)cc2c1 [Sample 15, N^2-(6,7-dimethoxy-2-naphthylsulfonyl)-L-arginyl-N-(2-methoxyehtyl)-β-alanine]",2.5 µM
2,"COCCN(CC(=O)O)C(=O)[C@H](CCCNC(=N)N)NS(=O)(=O)c1cccc2c(OC)cccc12 [Sample 43, N^2-(5-methoxy-1-naphthylsulfonyl)-L-arginyl-N-(2-methoxyethyl) glycine]",2.5 µM
3,"CCOCCN(CCC(=O)O)C(=O)[C@H](CCCNC(=N)N)NS(=O)(=O)c1ccc2cc(OC)c(OC)cc2c1 [Sample 21, N^2-(6,7-dimethoxy-2-naphthylsulfonyl)-L-arginyl-N-(2-ethoxyethyl)-β-alanine]",4 µM
4,"CCCCN(CC(=O)O)C(=O)[C@H](CCCNC(=N)N)NS(=O)(=O)c1ccc2ccc(OC)cc2c1 [Sample 39, N^2-(7-methoxy-2-naphthylsulfonyl)-L-arginyl-N-butylglycine]",0.5 µM
5,"CCCC(C(=O)O)N(CC(=O)O)C(=O)[C@H](CCCNC(=N)N)NS(=O)(=O)c1ccc2cc(OC)c(OC)cc2c1 (stereo partly drawn) [Sample 54, N^2-(6,7-dimethoxy-2-naphthylsulfonyl)-L-arginyl-N-(1-carboxybutyl)glycine]",55 µM
6,"CCCCCCCCOC(=O)CN(CCOC)C(=O)[C@H](CCCNC(=N)N)NS(=O)(=O)c1ccc2cc(OC)c(OC)cc2c1 [Sample 50, N^2-(6,7-dimethoxy-2-naphthylsulfonyl)-L-arginyl-N-(2-methoxyethyl)glycine octyl ester]",2 µM
7,"COCCN(CC(=O)O)C(=O)[C@H](CCCNC(=N)N)NS(=O)(=O)c1ccc2ccc(OC)cc2c1 [Sample 35, N^2-(7-methoxy-2-naphthylsulfonyl)-L-arginyl-N-(2-methoxyethyl)glycine]",0.5 µM
8,"COCCN(CC(=O)O)C(=O)[C@H](CCCNC(=N)N)NS(=O)(=O)c1ccc2cc(OC)c(OC)cc2c1 [Sample 13, N^2-(6,7-dimethoxy-2-naphthylsulfonyl)-L-arginyl-N-(2-methoxyethyl)glycine]",0.5 µM
9,"COCCN(CC(=O)Oc1cccc(C)c1)C(=O)[C@H](CCCNC(=N)N)NS(=O)(=O)c1ccc2cc(OC)c(OC)cc2c1 [Sample 52, N^2-(6,7-dimethoxy-2-naphthylsulfonyl)-L-arginyl-N-(2-methoxyethyl) glycine m-tolyl ester]",20 µM
10,"CCCCCN(CC(=O)O)C(=O)[C@H](CCCNC(=N)N)NS(=O)(=O)c1ccc2cc(OC)c(OC)cc2c1 [Sample 7, N^2-(6,7-dimethoxy-2-naphthylsulfonyl)-L-arginyl-N-pentylglycine]",5 µM
11,"CCOC(=O)CCN(CC(=O)O)C(=O)[C@H](CCCNC(=N)N)NS(=O)(=O)c1ccc2cc(OC)c(OC)cc2c1 [Sample 49, N^2-(6,7-dimethoxy-2-naphthylsulfonyl)-L-arginyl-N-(2-ethoxycarbonylethyl)glycine]",6.5 µM
12,"CCCCN(CC(=O)O)C(=O)[C@H](CCCNC(=N)N)NS(=O)(=O)c1cc(OC)c2cc(OC)ccc2c1 [Sample 25, N^2-(4,6-dimethoxy-2-naphthylsulfonyl)-L-arginyl-N-butylglycine]",2 µM
13,"CCCCN(CC(=O)O)C(=O)[C@H](CCCNC(=N)N)NS(=O)(=O)c1ccc2cc(OC)c(OC)cc2c1 [Sample 3, N^2-(6,7-dimethoxy-2-naphthylsulfonyl)-L-arginyl-N-butylglycine]",0.3 µM
14,"CCOc1cc2ccc(S(=O)(=O)N[C@@H](CCCNC(=N)N)C(=O)N(CCOC)CC(=O)O)cc2cc1OCC [Sample 27, N^2-(6,7-diethoxy-2-naphthylsulfonyl)-L-arginyl-N-(2-methoxyethyl) glycine]",15 µM
15,"CCOC(=O)CN(CCOC)C(=O)[C@H](CCCNC(=N)N)NS(=O)(=O)c1ccc2cc(OC)c(OC)cc2c1 [Sample 14, N^2-(6,7-dimethoxy-2-naphthylsulfonyl)-L-arginyl-N-(2-methoxyethyl)glycine ethyl ester]",1.5 µM
16,"COCCN(CC(=O)Oc1ccc2c(c1)CCC2)C(=O)[C@H](CCCNC(=N)N)NS(=O)(=O)c1ccc2cc(OC)c(OC)cc2c1 [Sample 53, N^2-(6,7-dimethoxy-2-naphthylsulfonyl)-L-arginyl-N-(2-methoxyethyl) glycine 5-indanyl ester]",30 µM
17,"CCCCN(CC(=O)O)C(=O)[C@H](CCCNC(=N)N)NS(=O)(=O)c1ccc2cc(OC)ccc2c1 [Sample 31, N^2-(6-methoxy-2-naphthylsulfonyl)-L-arginyl-N-butylglycine]",0.5 µM
18,"COCCN(CCCC(=O)O)C(=O)[C@H](CCCNC(=N)N)NS(=O)(=O)c1ccc2cc(OC)c(OC)cc2c1 [Sample 17, N^2-(6,7-dimethoxy-2-naphthylsulfonyl)-N-(2-methoxyethyl)-N-(3-carboxypropyl)-L-argininamide]",2.5 µM
19,"COCCN(CC(=O)O)C(=O)[C@H](CCCNC(=N)N)NS(=O)(=O)c1cc(OC)c2cc(OC)ccc2c1 [Sample 23, N^2-(4,6-dimethoxy-2-naphthylsulfonyl)-L-arginyl-N-(2-methoxyethyl)glycine]",4 µM
20,"COc1cc2ccc(S(=O)(=O)N[C@@H](CCCNC(=N)N)C(=O)N(CC(=O)O)CC(C)C)cc2cc1OC [Sample 5, N^2-(6,7-dimethoxy-2-naphthylsulfonyl)-L-arginyl-N-isobutylglycine]",2 µM
21,"COc1cc2ccc(S(=O)(=O)N[C@@H](CCCNC(=N)N)C(=O)N(CC(=O)O)CC(C)OC)cc2cc1OC (stereo partly drawn) [Sample 55, N^2-(6,7-dimethoxy-2-naphthylsulfonyl)-L-arginyl-N-(2-methoxypropyl)glycine]",6.5 µM
22,"CCCCCCN(CC(=O)O)C(=O)[C@H](CCCNC(=N)N)NS(=O)(=O)c1ccc2cc(OC)c(OC)cc2c1 [Sample 9, N^2-(6,7-dimethoxy-2-naphthylsulfonyl)-L-arginyl-N-hexylglycine]",1.5 µM
23,"COCCCN(CC(=O)O)S(=O)(=O)c1ccc2cc(OC)c(OC)cc2c1 [Sample 19, N^2-(6,7-dimethoxy-2-naphthylsulfonyl)-N-(3-methoxypropyl)glycine]",5 µM
24,"CCCN(CC(=O)O)C(=O)[C@H](CCCNC(=N)N)NS(=O)(=O)c1ccc2cc(OC)c(OC)cc2c1 [Sample 1, N^2-(6,7-dimethoxy-2-naphthylsulfonyl)-L-arginyl-N-propylglycine]",8 µM
25,"COc1ccc2ccc(S(=O)(=O)N[C@@H](CCCNC(=N)N)C(=O)N(CC[S+](C)[O-])CC(=O)O)cc2c1 (stereo partly drawn) [Sample 57, N^2-(7-methoxy-2-naphthylsulfonyl)-L-arginyl-N-(2-methylsulfinylethyl)glycine]",6.5 µM

# Test system: mice (male, 20 g)
# Test: acute toxicity (LD50), intraperitoneal administration in mice
# Type: in vivo
# Conditions: not given
# Source text: Representative LD50 values, for example, for N^2 -(6, 7-dimethoxy-2-naphthylsulfonyl)-L-arginyl-N-(2-methoxyethyl)glycine, N^2 -(6, 7-dimethoxy-2-naphthylsulfonyl)-L-arginyl-N-(2-ethoxyethyl)-β-alanine, N^2 -(4, 6-dimethoxy-2-naphthylsulfonyl)-L-arginyl-N-(2-methoxyethyl)glycine, N^2 -(7-methoxy-2-naphthylsulfonyl)-L-arginyl-N-(2-methoxyethyl)glycine are 1,900-2,400, 660-1,000, 660-1,000, 2,000 milligrams per kilogram, respectively.
row,SMILES,acute toxicity value (LD50)
1,"CCOCCN(CCC(=O)O)C(=O)[C@H](CCCNC(=N)N)NS(=O)(=O)c1ccc2cc(OC)c(OC)cc2c1 [Sample 21, N^2-(6,7-dimethoxy-2-naphthylsulfonyl)-L-arginyl-N-(2-ethoxyethyl)-β-alanine]","660-1,000 milligrams per kilogram"
2,"COCCN(CC(=O)O)C(=O)[C@H](CCCNC(=N)N)NS(=O)(=O)c1ccc2ccc(OC)cc2c1 [Sample 35, N^2-(7-methoxy-2-naphthylsulfonyl)-L-arginyl-N-(2-methoxyethyl)glycine]","2,000 milligrams per kilogram"
3,"COCCN(CC(=O)O)C(=O)[C@H](CCCNC(=N)N)NS(=O)(=O)c1ccc2cc(OC)c(OC)cc2c1 [Sample 13, N^2-(6,7-dimethoxy-2-naphthylsulfonyl)-L-arginyl-N-(2-methoxyethyl)glycine]","1,900-2,400 milligrams per kilogram"
4,"COCCN(CC(=O)O)C(=O)[C@H](CCCNC(=N)N)NS(=O)(=O)c1cc(OC)c2cc(OC)ccc2c1 [Sample 23, N^2-(4,6-dimethoxy-2-naphthylsulfonyl)-L-arginyl-N-(2-methoxyethyl)glycine]","660-1,000 milligrams per kilogram"
